Results from the NIST ThermoML archive (doi:10.1021/je3012925).
Numbers after ± are expanded uncertainties.

Assays:
[1] = Liquid; for mass density: 293.15 K, 101.33 kPa, Vibrating tube method; for Normal boiling temperature: mercury-in-glass thermometers
[2] = refractive index (Na D-line) (dimensionless); settings: 293.15 K; 101.33 kPa; Liquid; Standard Abbe refractometry

mass density [1] [kg/m3]	Normal boiling temperature [1] [°C]	refractive index [2]	Structure (SMILES)
817.6 ± 0.2	128.12 ± 0.2	1.4096 ± 0.0007	CCC(C)CO (centres undefined) [2-methyl-1-butanol]
873.5 ± 0.3	138.23 ± 0.2	1.4034 ± 0.0007	CCC(C)COC(C)=O (centres undefined) [2-methylbutyl ethanoate]
942.6 ± 0.3	153.06 ± 0.2	1.4328 ± 0.0007	CN(C)C=O [dimethylformamide]
